Experimental data: US20230145835A1, “Modulators of Alpha-4-beta-7 Integrin and MAdCAM” (48HD Biopharma Inc., priority 2021, published 2023)
Numbered stars: 1 amine (or outer) side, 2 acyl side, 3 side chain; on linkers, the order of the positions; unused ones are H or OH. Bridge positions count the residues as written; N and C are the ends. Square brackets hold non-standard residues; d marks the D form. Peptide text beside a SMILES is read from it. ξ: configuration not given here. X3 = O=C(/C=N/OCCCCCCOc1cc(C[*:2])cc(C[*:3])c1)[*:1]; X1 = O=C(C=NOCCCCCCOc1cc(C[*:2])cc(C[*:3])c1)[*:1]; hIle(4ξ) = CCC(C)C[C@H](N)C(=O)O; tBuAla = CC(C)(C)C[C@H](N)C(=O)O; Cba = N[C@@H](CC1CCC1)C(=O)O

Target: T1, rh-integrin α4β7/LPAM-1 (Homo sapiens, UniProt P13612+P26010)
T1 sequence (P13612 34-977 limits assumed): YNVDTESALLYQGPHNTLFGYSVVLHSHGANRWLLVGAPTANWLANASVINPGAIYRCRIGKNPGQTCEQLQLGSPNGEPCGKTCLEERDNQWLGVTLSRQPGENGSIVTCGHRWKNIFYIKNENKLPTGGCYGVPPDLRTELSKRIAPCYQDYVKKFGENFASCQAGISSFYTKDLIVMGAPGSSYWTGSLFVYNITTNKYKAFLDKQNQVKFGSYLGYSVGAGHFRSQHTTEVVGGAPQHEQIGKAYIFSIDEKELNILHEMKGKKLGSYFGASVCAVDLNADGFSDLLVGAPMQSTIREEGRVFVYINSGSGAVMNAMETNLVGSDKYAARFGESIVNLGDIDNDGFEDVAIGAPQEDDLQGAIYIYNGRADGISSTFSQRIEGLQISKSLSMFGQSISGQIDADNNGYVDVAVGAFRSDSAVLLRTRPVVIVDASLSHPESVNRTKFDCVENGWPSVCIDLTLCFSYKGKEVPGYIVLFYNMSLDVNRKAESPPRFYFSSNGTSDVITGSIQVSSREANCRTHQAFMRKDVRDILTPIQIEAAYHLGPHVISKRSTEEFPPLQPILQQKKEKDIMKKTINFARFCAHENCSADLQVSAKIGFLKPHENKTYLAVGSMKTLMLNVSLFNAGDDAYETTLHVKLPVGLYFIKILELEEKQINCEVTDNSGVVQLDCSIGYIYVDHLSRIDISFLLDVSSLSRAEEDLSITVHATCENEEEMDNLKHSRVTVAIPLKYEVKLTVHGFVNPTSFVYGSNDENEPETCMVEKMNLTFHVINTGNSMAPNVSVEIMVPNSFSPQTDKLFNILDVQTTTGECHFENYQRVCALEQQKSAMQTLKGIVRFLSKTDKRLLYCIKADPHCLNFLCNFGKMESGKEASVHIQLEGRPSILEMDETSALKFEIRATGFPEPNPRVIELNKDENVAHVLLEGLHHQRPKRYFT
T1 sequence (P26010 20-723 limits assumed): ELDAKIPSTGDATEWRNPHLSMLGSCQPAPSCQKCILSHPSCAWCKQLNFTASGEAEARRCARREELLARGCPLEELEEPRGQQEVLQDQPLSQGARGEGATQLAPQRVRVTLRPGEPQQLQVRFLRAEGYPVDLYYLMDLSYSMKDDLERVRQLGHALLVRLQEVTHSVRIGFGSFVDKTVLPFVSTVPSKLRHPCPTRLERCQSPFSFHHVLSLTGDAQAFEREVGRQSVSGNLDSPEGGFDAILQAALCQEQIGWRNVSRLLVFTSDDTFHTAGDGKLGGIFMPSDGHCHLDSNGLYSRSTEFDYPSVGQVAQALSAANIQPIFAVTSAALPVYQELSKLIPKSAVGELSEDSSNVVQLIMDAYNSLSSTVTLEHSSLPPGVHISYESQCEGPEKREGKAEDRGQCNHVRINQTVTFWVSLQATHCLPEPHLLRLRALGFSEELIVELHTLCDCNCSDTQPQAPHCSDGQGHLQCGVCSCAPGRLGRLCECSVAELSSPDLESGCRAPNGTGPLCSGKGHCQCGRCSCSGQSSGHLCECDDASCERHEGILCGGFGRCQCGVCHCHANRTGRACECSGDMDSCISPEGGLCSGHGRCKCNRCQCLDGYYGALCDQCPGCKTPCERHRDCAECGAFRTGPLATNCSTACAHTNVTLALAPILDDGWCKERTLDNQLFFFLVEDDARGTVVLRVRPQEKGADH
Assay: α4β7-MadCAM Competition ELISA (Example 4)
Assay type: binding
Conditions: Table 3 Representative compounds; inhibition of MAdCAM binding to coated α4β7; read-out: IC50
Description: After washing with wash buffer, 200 μL assay buffer was added to each well and incubated for one hour at 28° C. After another wash with wash buffer, 100 μL of a MAdCAM and peptide mixture in assay buffer was added to each well and incubated for one hour at 28° C., followed by washing with wash buffer.

Question: How did the IC50 turn out when `CCCC[C@@H]1NC(=O)[C@@H]2CCCN2C(=O)[C@@H]2CSCc3cc(cc(c3)OCCCCCCC(=O)NCC(=O)N[C@@H](C)C(=O)N2)CSC[C@@H](C(N)=O)NC(=O)[C@H](CCC(=O)O)NC(=O)[C@H](CCC(N)=O)NC(=O)[C@H](Cc2c[nH]c3ccccc23)NC(=O)[C@H](C(C)C)NC(=O)[C@H](CC(=O)O)NC1=O` (stereo in doubt) [compound 33, TSLC7- GACP{Nle} DVWQEC] was run?
Answer: 0.74 µM

Question: For `CC[C@H](C)[C@@H]1NC(=O)[C@H](CC(=O)O)NC(=O)[C@H](CC(C)C)NC(=O)[C@@H]2CSCc3cc(cc(c3)OCCCCCCO/N=C/C(=O)N[C@@H](CCCNC(=N)N)C(=O)N2)CSC[C@@H](C(N)=O)NC(=O)[C@H](CC(=O)O)NC(=O)[C@H](Cc2ccc(O)cc2)NC(=O)[C@H]([C@@H](C)O)NC1=O` [compound 92, TSL6- SRCLDIMYDC] (RCLDITYDC-NH2; linker N-2-9 via X3), which IC50 is on record?
Answer: 100 µM

Question: `CC(C)C[C@@H]1NC(=O)[C@@H]2CCCN2C(=O)[C@@H]2CSCc3cc(cc(c3)OCCCCCCO/N=C/C(=O)N[C@@H](CCCNC(=N)N)C(=O)N2)CSC[C@@H](C(N)=O)NC(=O)[C@H](CCC(=O)O)NC(=O)[C@H](Cc2ccc(O)cc2)NC(=O)[C@H](C)NC(=O)[C@H]([C@@H](C)O)NC(=O)[C@H](CC(=O)O)NC1=O` [compound 38, TSL6- SKCPLDTAYEC] (RCPLDTAYEC-NH2; linker N-2-10 via X3) was tested. Which IC50 did it give?
Answer: 1.04 µM

Question: How did the IC50 turn out when `C[C@@H](O)[C@@H]1NC(=O)[C@H](CC(=O)O)NC(=O)[C@@H]2CCCN2C(=O)[C@H](Cc2ccc(O)cc2)NC(=O)[C@@H]2CSCc3cc(cc(c3)OCCCCCCO/N=C/C(=O)N[C@@H](CCC(=O)O)C(=O)N2)CSC[C@@H](C(N)=O)NC(=O)[C@H](Cc2cnc[nH]2)NC(=O)[C@H](Cc2ccc(O)cc2)NC1=O` [compound 71, TSL6- SECYPDTYHC] (ECYPDTYHC-NH2; linker N-2-9 via X3) was run?
Answer: 20.2 µM

Question: For `CC(C)C[C@@H]1NC(=O)[C@@H]2CCCN2C(=O)[C@@H]2CSCc3cc(cc(c3)OCCCCCCO/N=C/C(=O)N[C@@H](CCCCN)C(=O)N2)CSC[C@@H](C(N)=O)NC(=O)[C@H](CCC(=O)O)NC(=O)[C@H](CCC(N)=O)NC(=O)[C@@H]2CCCN2C(=O)[C@H]([C@@H](C)O)NC(=O)[C@H](CC(=O)O)NC1=O` [compound 26, TSL6- SKCPLDTPQEC] (KCPLDTPQEC-NH2; linker N-2-10 via X3), which IC50 is on record?
Answer: 0.602 µM

Question: For `CC(C)[C@@H]1NC(=O)[C@H](CC(=O)O)NC(=O)[C@H](CC(C)(C)C)NC(=O)[C@@H]2CCCN2C(=O)[C@@H]2CSCc3cc(cc(c3)OCCCCCCO/N=C/C(=O)N[C@@H](CCCNC(=N)N)C(=O)N2)CSC[C@@H](C(N)=O)NC(=O)[C@H](CCC(=O)O)NC(=O)CNC(=O)[C@H](Cc2c[nH]c3ccccc23)NC1=O` [compound 58, TSL6- SRCP{tBuAla} DVWGEC] (RCP[tBuAla]DVWGEC-NH2; linker N-2-10 via X3), which IC50 is on record?
Answer: 4.01 µM

Question: How did the IC50 turn out when `CCC(C)C[C@@H]1NC(=O)[C@H](CC(=O)O)NC(=O)[C@H](CC(C)C)NC(=O)[C@H](CCCCN)NC(=O)[C@@H]2CSCc3cc(cc(c3)OCCCCCCO/N=C/C(=O)N[C@@H](Cc3c[nH]cn3)C(=O)N2)CSC[C@@H](C(N)=O)NC(=O)[C@H](CC(C)C)NC(=O)[C@H](Cc2c[nH]c3ccccc23)NC1=O` (stereo partly shown) [compound 107, TSL6- SHCKLDIWVC] (HCKLD[hIle(4ξ)]WLC-NH2; linker N-2-9 via X3) was run?
Answer: > 500 µM

Question: Which IC50 does the source give for `CC[C@H](C)[C@@H]1NC(=O)[C@H](CC(=O)O)NC(=O)[C@H](CCSC)NC(=O)[C@@H]2CCCN2C(=O)[C@@H](NC(=O)[C@H](CCC(N)=O)NC(=O)[C@H](CO)NC(C)=O)CSSC[C@@H](C(N)=O)NC(=O)[C@H]([C@@H](C)O)NC(=O)[C@@H]2CCCN2C1=O` [compound 47] (Ac-SQCPMDIPTC-NH2; disulfide 3-10) here?
Answer: 1.7 µM

Question: How did the IC50 turn out when `CC[C@H](C)[C@@H]1NC(=O)[C@H](Cc2ccc(O)cc2)NC(=O)[C@H](CC(C)C)NC(=O)[C@@H]2CCCN2C(=O)[C@@H]2CSCc3cc(cc(c3)OCCCCCCO/N=C/C(=O)N[C@@H](CCSC)C(=O)N2)CSC[C@@H](C(N)=O)NC(=O)[C@H](Cc2cnc[nH]2)NC(=O)[C@H](C(C)C)NC1=O` [compound 72, TSL6- SMCPLYIVHC] (MCPLYIVHC-NH2; linker N-2-9 via X3) was run?
Answer: 29.4 µM

Question: How did the IC50 turn out when `CC[C@H](C)[C@@H]1NC(=O)[C@H](CC(=O)O)NC(=O)[C@H](CCSC)NC(=O)[C@@H]2CCCN2C(=O)[C@@H]2CSCc3cc(cc(c3)OCCCCCCO/N=C/C(=O)N[C@@H](CCC(N)=O)C(=O)N2)CSC[C@@H](C(N)=O)NC(=O)[C@H]([C@@H](C)O)NC(=O)[C@@H]2CCCN2C1=O` [compound 40, TSL6- SQCPMDIPTC] (QCPMDIPTC-NH2; linker N-2-9 via X3) was run?
Answer: 1.27 µM

Same assay, conditions: competition ELISA, 4 μg/mL α4β7 coated, MAdCAM and peptide mixture, 28° C.; read-out: IC50

Question: How did the IC50 turn out when `CC(C)C[C@@H]1NC(=O)[C@@H]2CCCN2C(=O)[C@@H]2CSCc3cc(cc(c3)OCCCCCCON=CC(=O)N[C@@H](CCCCN)C(=O)N2)CSC[C@@H](C(=O)O)NC(=O)[C@H](CCC(=O)O)NC(=O)[C@H]([C@@H](C)O)NC(=O)[C@@H]2CCCN2C(=O)[C@H]([C@@H](C)O)NC(=O)[C@H](CC(=O)O)NC1=O` [SEQ ID NO: 121] (KCPLDTPTEC-OH; linker N-2-10 via X1) was run?
Answer: 0.748 µM

Question: How did the IC50 turn out when `CC(C)(C)C[C@@H]1NC(=O)[C@H](CC(=O)O)NC(=O)[C@H](CC2CCC2)NC(=O)[C@@H]2CCCN2C(=O)[C@@H]2CSCc3cc(cc(c3)OCCCCCCON=CC(=O)N[C@@H](CCCNC(=N)N)C(=O)N2)CSC[C@@H](C(=O)O)NC(=O)[C@H](CCC(=O)O)NC(=O)[C@H](CCC(N)=O)NC(=O)[C@H](Cc2c[nH]c3ccccc23)NC1=O` [SEQ ID NO: 105] (RCP[Cba]D[tBuAla]WQEC-OH; linker N-2-10 via X1) was run?
Answer: 3.89 µM

Question: For `C[C@@H]1NC(=O)C=NOCCCCCCOc2cc3cc(c2)CSC[C@H](NC1=O)C(=O)N[C@@H](Cc1ccc(O)cc1)C(=O)N1CCC[C@H]1C(=O)N[C@@H](CC(=O)O)C(=O)N[C@@H]([C@@H](C)O)C(=O)N[C@@H](Cc1ccc(O)cc1)C(=O)N[C@@H](Cc1c[nH]cn1)C(=O)N[C@H](C(=O)O)CSC3` [SEQ ID NO: 39] (ACYPDTYHC-OH; linker N-2-9 via X1), which IC50 is on record?
Answer: 111 µM

Question: `CC(C)C[C@@H]1NC(=O)[C@@H]2CCCN2C(=O)[C@@H]2CSCc3cc(cc(c3)OCCCCCCON=CC(=O)N[C@@H](CCCCN)C(=O)N2)CSC[C@@H](C(=O)O)NC(=O)[C@H](CCC(=O)O)NC(=O)[C@H](Cc2ccc(O)cc2)NC(=O)[C@@H]2CCCN2C(=O)[C@H](CC(C)C)NC(=O)[C@H](CC(=O)O)NC1=O` [SEQ ID NO: 134] (KCPLDLPYEC-OH; linker N-2-10 via X1) was tested. Which IC50 did it give?
Answer: 0.363 µM

Question: `N=C(N)NCCC[C@@H]1NC(=O)CNC(=O)[C@H](Cc2ccc(O)cc2)NC(=O)[C@H](Cc2c[nH]c3ccccc23)NC(=O)[C@H](Cc2c[nH]cn2)NC(=O)[C@@H]2CSCc3cc(cc(c3)OCCCCCCON=CC(=O)N[C@@H](CCC(N)=O)C(=O)N2)CSC[C@@H](C(=O)O)NC(=O)[C@H](CO)NC1=O` [SEQ ID NO: 19] (QCHWYGRSC-OH; linker N-2-9 via X1) was tested. Which IC50 did it give?
Answer: > 500 µM

Question: With `CC(C)C[C@@H]1NC(=O)[C@@H]2CCCN2C(=O)[C@@H]2CSCc3cc(cc(c3)OCCCCCCON=CC(=O)N[C@@H](CCCCN)C(=O)N2)CSC[C@@H](C(=O)O)NC(=O)[C@H](CCC(=O)O)NC(=O)[C@H](Cc2ccc(O)cc2)NC(=O)[C@@H]2CCCN2C(=O)[C@H]([C@@H](C)O)NC(=O)[C@H](C)NC1=O` [SEQ ID NO: 72] (KCPLATPYEC-OH; linker N-2-10 via X1) as the compound, how does the IC50 read?
Answer: > 500 µM
